Biological target: T1, Coagulation factor XII (Homo sapiens, UniProt P00748)
T1 sequence (P00748 whole entry): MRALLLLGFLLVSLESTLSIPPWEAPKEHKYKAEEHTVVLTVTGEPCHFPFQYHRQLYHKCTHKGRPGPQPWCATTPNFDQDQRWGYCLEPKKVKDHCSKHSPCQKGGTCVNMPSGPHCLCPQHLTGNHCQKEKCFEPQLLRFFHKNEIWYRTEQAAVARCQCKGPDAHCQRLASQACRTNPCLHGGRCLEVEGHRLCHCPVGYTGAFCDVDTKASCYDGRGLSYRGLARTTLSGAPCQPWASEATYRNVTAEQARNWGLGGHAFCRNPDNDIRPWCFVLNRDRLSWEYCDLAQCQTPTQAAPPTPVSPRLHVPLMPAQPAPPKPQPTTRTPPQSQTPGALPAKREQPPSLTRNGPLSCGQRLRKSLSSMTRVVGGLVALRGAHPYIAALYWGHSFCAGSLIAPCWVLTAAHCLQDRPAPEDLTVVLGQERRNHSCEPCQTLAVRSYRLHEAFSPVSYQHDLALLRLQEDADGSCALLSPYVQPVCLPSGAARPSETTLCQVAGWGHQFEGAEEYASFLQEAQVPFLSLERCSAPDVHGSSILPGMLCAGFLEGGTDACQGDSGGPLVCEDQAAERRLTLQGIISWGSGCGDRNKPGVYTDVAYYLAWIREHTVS
Assay: Factor XIIa assay: Factor XIIa activity determinations were made in 50 mM HEPES buffer containing 150 mM NaCl, 5 mM CaCl2, and 0.1% PEG 8000 (polyethylene glycol; JT Baker or Fisher Scientific) at pH 7.4. Determinations were made using purified human Factor XIIa at a final concentration of […] (Sekisui Diagnostics) and the synthetic substrate, n-Acetyl-Lys-Pro-Arg-AFC, TFA salt (Sigma # C6608) at a concentration of 100 μM.

Work on `O=C(NCc1cccs1)[C@H]1CN(C(=O)C(CC2CCNCC2)NC2CCCCC2)CC[C@H]1NC(=O)N1CCC2(CC1)CC2` (some centres not stated) yielded an IC50 of 82.9 nM.
For `C[N+](C)(C)CCCC[C@@H](NC1CCCCC1)C(=O)N1CC[C@@H](NC(=O)N2CCC3(CC2)CC3)[C@@H](C(=O)NCc2ccccc2)C1`, the IC50 was 5 nM.
